Reference: US20020137929A1, “1 - (3-heterocyclylphenyl) isothiourea, -isourea, -guanidine and -amidine herbicidal agents” (Intellectual Property Department, BASF Aktiengesellschaft, priority 1998, published 2002)

Columns and labels:
[1] = test system: ABUTH (Velvetleaf); experiment: Postemergence herbicidal evaluation; format: in vivo, Abutilon theophrasti
How it was run: (§1)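 ~2-wk seedlings; postemergence spray, 40 psi; vehicle 1:1 acetone:water + 0.5% Tween 20; rate ≈0.0156–0.500 kg/ha; greenhouse hold; scored 4–5 wk after treatment, 0–9 scale vs control; repeat tests averaged.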

[2] = test system: IPOHE (Morningglory, Ivyleaf); experiment: Postemergence herbicidal evaluation; format: in vivo, Ipomoea hederacea
How it was run: as §1

[3] = test system: TRZAWR (Wheat, Winter, cv Riband); experiment: Postemergence herbicidal evaluation; format: in vivo, Triticum aestivum
How it was run: as §1

[4] = test system: CHEAL (Lambsquarters, Common); experiment: Preemergence herbicidal evaluation; format: in vivo, Chenopodium album; conditions: rated 4-5 weeks after treatment
How it was run: (§2)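 Scores (0–9) reflect visual comparison with control plants for stand, vigor, malformation, size and chlorosis. Compound was applied to the soil after sowing, before emergence, as an aqueous acetone spray (about 0.0156–0.500 kg/ha), and cups were kept in a greenhouse for 4–5 weeks.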

[5] = test system: IPOHE (Morningglory, Ivyleaf); experiment: Preemergence herbicidal evaluation; format: in vivo, Ipomoea hederacea; conditions: rated 4-5 weeks after treatment
How it was run: as §2

[6] = test system: ECHCG (Barnyardgrass); experiment: Preemergence herbicidal evaluation; format: in vivo, Echinochloa crus-galli; conditions: rated 4-5 weeks after treatment
How it was run: as §2

[7] = test system: SETVI (Foxtail, Green); experiment: Preemergence herbicidal evaluation; format: in vivo, Setaria viridis; conditions: rated 4-5 weeks after treatment
How it was run: as §2

[8] = test system: ORYSAT (Rice, Tebonnet); experiment: Preemergence herbicidal evaluation; format: in vivo, Oryza sativa, (L.) Tebonnet; conditions: rated 4-5 weeks after treatment
How it was run: as §2

[9] = test system: TRZAWR (Wheat, Winter, cv Riband); experiment: Preemergence herbicidal evaluation; format: in vivo, Triticum aestivum; conditions: rated 4-5 weeks after treatment
How it was run: as §2

[10] = test system: ECHORC (Watergrass (Calif.)); experiment: Preemergence weed control under flooded paddy conditions; format: in vivo, Echinochloa oryzoides; conditions: rated 3-4 weeks after treatment
How it was run: (§3)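 Silt loam, seeds in top 0.5 cm; flood held 1.5-3 cm; test cpd as acetone/water 50/50 into flood water, ~0.0313-0.500 kg/ha a.i.; greenhouse 3-4 wk; visual 0-9 score vs control.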

[11] = test system: MOOVA (Monochoria); experiment: as above; format: in vivo, Monochoria vaginalis; conditions: rated 3-4 weeks after treatment
How it was run: as §3

[12] = test system: ECHORC (Watergrass (Calif.)); experiment: Postemergence weed control under flooded paddy conditions; format: in vivo, Echinochloa oryzoides; conditions: postemergence weeds, rated 3 to 4 weeks after treatment
How it was run: (§4)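 With weeds 3 to 5 cm tall and rice at the 1.5 to 2.5 leaf stage, containers were flooded and water held 1.5 to 3 cm above soil. Compounds in 50/50 v/v aqueous/acetone went into the flood water at about 0.0313 to 0.500 kg/ha a.i. Effects were visually rated 0–9 against controls after three to four weeks in the greenhouse.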

[13] = test system: CYPIR (Rice Flatsedge); experiment: as above; format: in vivo, Cyperus iria; conditions: postemergence weeds, rated 3 to 4 weeks after treatment
How it was run: as §4

With CN1C(=O)C(CC(=O)O)SC1=Nc1cc(-n2c(=O)cc(C(F)(F)F)n(C)c2=O)c(F)cc1Cl (stereo not shown) [Compound 63, 2-{{2-Chloro-5-[3,6-dihydro-3-methyl-2,6-dioxo-4-(trifluoromethyl)-1(2H)-pyrimidinyl]-4-fluoro-phenyl}imino}-3-methyl-4-oxo-5-thiazolidineacetic acid] the “Postemergence herbicidal rating ABUTH” value ([1]; Rate 0.0158 kg/ha) was 9.0, the “Postemergence herbicidal rating ABUTH” value ([1]; Rate 0.0315 kg/ha) was 6.0 and the “Postemergence herbicidal rating ABUTH” value ([1]; Rate 0.0630 kg/ha) was 9.0. For the same compound, the “Postemergence herbicidal rating IPOHE” value ([2]; Rate 0.0158 kg/ha) was 9.0, the “Postemergence herbicidal rating IPOHE” value ([2]; Rate 0.0315 kg/ha) was 9.0 and the “Postemergence herbicidal rating IPOHE” value ([2]; Rate 0.0630 kg/ha) was 9.0. For the same compound, the “Postemergence herbicidal rating TRZAWR” value ([3]; Rate 0.0158 kg/ha) was 5.5, the “Postemergence herbicidal rating TRZAWR” value ([3]; Rate 0.0315 kg/ha) was 6.0 and the “Postemergence herbicidal rating TRZAWR” value ([3]; Rate 0.0630 kg/ha) was 7.0. The “Preemergence herbicidal rating CHEAL” value ([4]; rate 0.0313 kg/ha) was 7.0, the “Preemergence herbicidal rating CHEAL” value ([4]; rate 0.0625 kg/ha) was 9.0 and the “Preemergence herbicidal rating CHEAL” value ([4]; rate 0.1250 kg/ha) was 9.0. The “Preemergence herbicidal rating CHEAL” value ([4]; rate 0.2500 kg/ha) was 9.0, the “Preemergence herbicidal rating IPOHE” value ([5]; rate 0.0156 kg/ha) was 0.0 and the “Preemergence herbicidal rating IPOHE” value ([5]; rate 0.0313 kg/ha) was 1.0. The “Preemergence herbicidal rating IPOHE” value ([5]; rate 0.0625 kg/ha) was 6.0, the “Preemergence herbicidal rating IPOHE” value ([5]; rate 0.1250 kg/ha) was 7.0 and the “Preemergence herbicidal rating IPOHE” value ([5]; rate 0.2500 kg/ha) was 9.0. For the same compound, the “Preemergence herbicidal rating ECHCG” value ([6]; rate 0.0156 kg/ha) was 0.0, the “Preemergence herbicidal rating ECHCG” value ([6]; rate 0.0313 kg/ha) was 0.0 and the “Preemergence herbicidal rating ECHCG” value ([6]; rate 0.0625 kg/ha) was 1.0. The “Preemergence herbicidal rating ECHCG” value ([6]; rate 0.1250 kg/ha) was 4.0, the “Preemergence herbicidal rating ECHCG” value ([6]; rate 0.2500 kg/ha) was 9.0 and the “Preemergence herbicidal rating SETVI” value ([7]; rate 0.0156 kg/ha) was 0.0. The “Preemergence herbicidal rating SETVI” value ([7]; rate 0.0313 kg/ha) was 0.0, the “Preemergence herbicidal rating SETVI” value ([7]; rate 0.0625 kg/ha) was 1.0 and the “Preemergence herbicidal rating SETVI” value ([7]; rate 0.1250 kg/ha) was 9.0. For the same compound, the “Preemergence herbicidal rating SETVI” value ([7]; rate 0.2500 kg/ha) was 9.0, the “Preemergence herbicidal rating ORYSAT” value ([8]; rate 0.0156 kg/ha) was 0.0 and the “Preemergence herbicidal rating ORYSAT” value ([8]; rate 0.0313 kg/ha) was 0.0. For the same compound, the “Preemergence herbicidal rating ORYSAT” value ([8]; rate 0.0625 kg/ha) was 5.0, the “Preemergence herbicidal rating ORYSAT” value ([8]; rate 0.1250 kg/ha) was 7.0 and the “Preemergence herbicidal rating ORYSAT” value ([8]; rate 0.2500 kg/ha) was 7.0. For the same compound, the “Preemergence herbicidal rating TRZAWR” value ([9]; rate 0.0156 kg/ha) was 0.0, the “Preemergence herbicidal rating TRZAWR” value ([9]; rate 0.0313 kg/ha) was 0.0 and the “Preemergence herbicidal rating TRZAWR” value ([9]; rate 0.0625 kg/ha) was 1.0. For the same compound, the “Preemergence herbicidal rating TRZAWR” value ([9]; rate 0.1250 kg/ha) was 6.0, the “Preemergence herbicidal rating TRZAWR” value ([9]; rate 0.2500 kg/ha) was 7.0 and the “ECHORC herbicidal effect rating” value ([10]; 0.0313 kg/ha) was 0.0. For the same compound, the “ECHORC herbicidal effect rating” value ([10]; 0.0625 kg/ha) was 0.0, the “ECHORC herbicidal effect rating” value ([10]; 0.1250 kg/ha) was 5.0 and the “ECHORC herbicidal effect rating” value ([10]; 0.2500 kg/ha) was 5.0. For the same compound, the “MOOVA herbicidal effect rating” value ([11]; 0.0313 kg/ha) was 9.0, the “MOOVA herbicidal effect rating” value ([11]; 0.0625 kg/ha) was 9.0 and the “MOOVA herbicidal effect rating” value ([11]; 0.1250 kg/ha) was 9.0. For the same compound, the “MOOVA herbicidal effect rating” value ([11]; 0.2500 kg/ha) was 9.0, the “Herbicidal rating ECHORC” value ([12]; Rate 0.0313 kg/ha) was 0.0 and the “Herbicidal rating ECHORC” value ([12]; Rate 0.0625 kg/ha) was 0.0. The “Herbicidal rating ECHORC” value ([12]; Rate 0.1250 kg/ha) was 5.0, the “Herbicidal rating ECHORC” value ([12]; Rate 0.2500 kg/ha) was 5.0 and the “Herbicidal rating CYPIR” value ([13]; Rate 0.0313 kg/ha) was 2.0. For the same compound, the “Herbicidal rating CYPIR” value ([13]; Rate 0.0625 kg/ha) was 6.0, the “Herbicidal rating CYPIR” value ([13]; Rate 0.1250 kg/ha) was 7.0 and the “Herbicidal rating CYPIR” value ([13]; Rate 0.2500 kg/ha) was 7.0.

In the case of C=CCN1C(=O)C(CC(=O)OC)SC1=Nc1cc(-n2c(=O)cc(C(F)(F)F)n(C)c2=O)c(F)cc1Cl (stereo not shown) [Compound 64, Methyl 3-allyl-2-{{2-chloro-5-[3,6-dihydro-3-methyl-2,6-dioxo-4-(trifluoromethyl)-1(2H)-pyrimidinyl]-4-fluorophenyl}imino}-4-oxo-5-thiazolidineacetate], the “Postemergence herbicidal rating ABUTH” value ([1]; Rate 0.0158 kg/ha) is reported as 9.0, the “Postemergence herbicidal rating ABUTH” value ([1]; Rate 0.0315 kg/ha) is reported as 9.0 and the “Postemergence herbicidal rating ABUTH” value ([1]; Rate 0.0630 kg/ha) is reported as 9.0. For the same compound, the “Postemergence herbicidal rating IPOHE” value ([2]; Rate 0.0158 kg/ha) was 9.0, the “Postemergence herbicidal rating IPOHE” value ([2]; Rate 0.0315 kg/ha) was 9.0 and the “Postemergence herbicidal rating IPOHE” value ([2]; Rate 0.0630 kg/ha) was 9.0. The “Postemergence herbicidal rating TRZAWR” value ([3]; Rate 0.0158 kg/ha) was 6.0, the “Postemergence herbicidal rating TRZAWR” value ([3]; Rate 0.0315 kg/ha) was 6.0 and the “Postemergence herbicidal rating TRZAWR” value ([3]; Rate 0.0630 kg/ha) was 7.0. For the same compound, the “Preemergence herbicidal rating CHEAL” value ([4]; rate 0.0156 kg/ha) was 9.0, the “Preemergence herbicidal rating CHEAL” value ([4]; rate 0.0313 kg/ha) was 9.0 and the “Preemergence herbicidal rating CHEAL” value ([4]; rate 0.0625 kg/ha) was 9.0. For the same compound, the “Preemergence herbicidal rating CHEAL” value ([4]; rate 0.1250 kg/ha) was 9.0, the “Preemergence herbicidal rating CHEAL” value ([4]; rate 0.2500 kg/ha) was 9.0 and the “Preemergence herbicidal rating IPOHE” value ([5]; rate 0.0156 kg/ha) was 0.0. For the same compound, the “Preemergence herbicidal rating IPOHE” value ([5]; rate 0.0313 kg/ha) was 0.0, the “Preemergence herbicidal rating IPOHE” value ([5]; rate 0.0625 kg/ha) was 9.0 and the “Preemergence herbicidal rating IPOHE” value ([5]; rate 0.1250 kg/ha) was 9.0. The “Preemergence herbicidal rating IPOHE” value ([5]; rate 0.2500 kg/ha) was 9.0, the “Preemergence herbicidal rating ECHCG” value ([6]; rate 0.0156 kg/ha) was 0.0 and the “Preemergence herbicidal rating ECHCG” value ([6]; rate 0.0313 kg/ha) was 0.0. The “Preemergence herbicidal rating ECHCG” value ([6]; rate 0.0625 kg/ha) was 1.0, the “Preemergence herbicidal rating ECHCG” value ([6]; rate 0.1250 kg/ha) was 3.0 and the “Preemergence herbicidal rating ECHCG” value ([6]; rate 0.2500 kg/ha) was 6.0. For the same compound, the “Preemergence herbicidal rating SETVI” value ([7]; rate 0.0156 kg/ha) was 0.0, the “Preemergence herbicidal rating SETVI” value ([7]; rate 0.0313 kg/ha) was 0.0 and the “Preemergence herbicidal rating SETVI” value ([7]; rate 0.0625 kg/ha) was 9.0. The “Preemergence herbicidal rating SETVI” value ([7]; rate 0.1250 kg/ha) was 7.0, the “Preemergence herbicidal rating SETVI” value ([7]; rate 0.2500 kg/ha) was 9.0 and the “Preemergence herbicidal rating ORYSAT” value ([8]; rate 0.0156 kg/ha) was 0.0. The “Preemergence herbicidal rating ORYSAT” value ([8]; rate 0.0313 kg/ha) was 0.0, the “Preemergence herbicidal rating ORYSAT” value ([8]; rate 0.0625 kg/ha) was 1.0 and the “Preemergence herbicidal rating ORYSAT” value ([8]; rate 0.1250 kg/ha) was 1.0. The “Preemergence herbicidal rating ORYSAT” value ([8]; rate 0.2500 kg/ha) was 5.0, the “Preemergence herbicidal rating TRZAWR” value ([9]; rate 0.0156 kg/ha) was 0.0 and the “Preemergence herbicidal rating TRZAWR” value ([9]; rate 0.0313 kg/ha) was 0.0. The “Preemergence herbicidal rating TRZAWR” value ([9]; rate 0.0625 kg/ha) was 1.0, the “Preemergence herbicidal rating TRZAWR” value ([9]; rate 0.1250 kg/ha) was 1.0 and the “Preemergence herbicidal rating TRZAWR” value ([9]; rate 0.2500 kg/ha) was 3.0. For the same compound, the “ECHORC herbicidal effect rating” value ([10]; 0.0313 kg/ha) was 5.0, the “ECHORC herbicidal effect rating” value ([10]; 0.0625 kg/ha) was 6.0 and the “ECHORC herbicidal effect rating” value ([10]; 0.1250 kg/ha) was 6.0. For the same compound, the “ECHORC herbicidal effect rating” value ([10]; 0.2500 kg/ha) was 9.0, the “MOOVA herbicidal effect rating” value ([11]; 0.0313 kg/ha) was 7.0 and the “MOOVA herbicidal effect rating” value ([11]; 0.0625 kg/ha) was 9.0. For the same compound, the “MOOVA herbicidal effect rating” value ([11]; 0.1250 kg/ha) was 9.0, the “MOOVA herbicidal effect rating” value ([11]; 0.2500 kg/ha) was 9.0 and the “Herbicidal rating ECHORC” value ([12]; Rate 0.0313 kg/ha) was 5.0. The “Herbicidal rating ECHORC” value ([12]; Rate 0.0625 kg/ha) was 6.0, the “Herbicidal rating ECHORC” value ([12]; Rate 0.1250 kg/ha) was 6.0 and the “Herbicidal rating ECHORC” value ([12]; Rate 0.2500 kg/ha) was 9.0. The “Herbicidal rating CYPIR” value ([13]; Rate 0.0313 kg/ha) was 0.0, the “Herbicidal rating CYPIR” value ([13]; Rate 0.0625 kg/ha) was 2.0 and the “Herbicidal rating CYPIR” value ([13]; Rate 0.1250 kg/ha) was 2.0. The “Herbicidal rating CYPIR” value ([13]; Rate 0.2500 kg/ha) was 7.0.
